What all share (type): biochemical
The target in experiment [1] is T1, panel of kinases (Homo sapiens, UniProt P51813).
T1 sequence (P51813 1-675): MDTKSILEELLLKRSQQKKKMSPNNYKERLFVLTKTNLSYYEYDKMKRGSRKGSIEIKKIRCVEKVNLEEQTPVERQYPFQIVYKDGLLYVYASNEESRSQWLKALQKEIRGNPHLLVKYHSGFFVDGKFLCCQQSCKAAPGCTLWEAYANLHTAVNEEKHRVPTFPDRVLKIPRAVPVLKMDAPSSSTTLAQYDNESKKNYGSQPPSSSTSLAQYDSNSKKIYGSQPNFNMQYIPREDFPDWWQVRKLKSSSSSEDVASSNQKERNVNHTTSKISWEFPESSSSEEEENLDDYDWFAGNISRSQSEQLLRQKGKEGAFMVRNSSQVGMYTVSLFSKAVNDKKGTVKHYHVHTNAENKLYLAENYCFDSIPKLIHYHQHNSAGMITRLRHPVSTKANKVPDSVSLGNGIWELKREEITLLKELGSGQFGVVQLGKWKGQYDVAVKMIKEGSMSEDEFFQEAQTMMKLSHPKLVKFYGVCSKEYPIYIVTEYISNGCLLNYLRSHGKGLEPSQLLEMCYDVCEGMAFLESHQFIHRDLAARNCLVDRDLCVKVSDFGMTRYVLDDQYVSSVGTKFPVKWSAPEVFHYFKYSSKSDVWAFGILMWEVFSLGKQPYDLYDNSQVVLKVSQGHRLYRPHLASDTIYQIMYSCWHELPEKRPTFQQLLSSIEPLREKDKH
Description: Inhibition of a panel of kinases (in vitro HotSpot kinase assay, 33P-ATP, 1 μM ATP), other kinases. The note with it: BMX wild-type, read-out: BMX-WT IC50. The method, boiled down:
(§1)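 Radiometric read-out: 33P transfer to a suitable substrate by each purified enzyme, ATP at 1 μM. Values are degree of inhibition.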

Experiment [2] has as its target T2, TEC (Homo sapiens, UniProt P42680).
T2 sequence (P42680 1-631): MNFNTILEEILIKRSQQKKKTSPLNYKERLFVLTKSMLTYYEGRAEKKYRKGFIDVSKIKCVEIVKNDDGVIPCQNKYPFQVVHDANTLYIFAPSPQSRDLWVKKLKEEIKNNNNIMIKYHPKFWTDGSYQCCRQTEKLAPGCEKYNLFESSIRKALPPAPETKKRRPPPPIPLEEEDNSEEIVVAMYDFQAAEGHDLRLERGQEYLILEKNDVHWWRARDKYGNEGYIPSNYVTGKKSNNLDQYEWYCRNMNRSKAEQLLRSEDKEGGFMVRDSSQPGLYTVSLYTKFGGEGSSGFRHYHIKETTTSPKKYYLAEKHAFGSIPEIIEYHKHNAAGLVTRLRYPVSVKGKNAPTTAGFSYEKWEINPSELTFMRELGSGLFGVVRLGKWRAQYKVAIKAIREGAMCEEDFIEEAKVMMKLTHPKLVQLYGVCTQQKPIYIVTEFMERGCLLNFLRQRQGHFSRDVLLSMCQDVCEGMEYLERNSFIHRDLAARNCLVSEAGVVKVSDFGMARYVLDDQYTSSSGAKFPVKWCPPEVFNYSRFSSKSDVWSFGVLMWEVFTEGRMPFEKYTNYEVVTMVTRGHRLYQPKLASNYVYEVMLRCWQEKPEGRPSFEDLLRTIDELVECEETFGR
Kind of experiment: Inhibition of a panel of kinases (in vitro HotSpot kinase assay, 33P-ATP, 1 μM ATP). Particulars: for IC50: HotSpot kinase assay, 1 μM ATP; for TEC/Btk: ratio of TEC IC50 to Btk IC50 (selectivity). The procedure, abridged: as §1

Experiment [3] addresses T3, Btk (Homo sapiens, UniProt Q06187).
T3 construct: purified from insect cells as a full-length construct containing a N-terminal 6X-His tag; His6 (N); made in house; host or cells: insect cells (Method C)
Kind of experiment: Btk in vitro inhibitory activity (one of Method A TR-FRET, Method B electrophoretic mobility shift, Method C radiometric filter binding). The method, boiled down:
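Three alternative formats were used. A radiometric filter-binding read used 8 nM full-length His-BTK with 0.2 mg/mL poly(Glu-Tyr) 4:1 (C); microfluidic separation of 1 μM FAM-peptide by 1 nM BTK gave IC50 from 12-point curves (B); TR-FRET at Km ATP, 0.5 nM Btk, gave Ki(app)-derived IC50 (A).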
For orientation: A gel shift assay detects complexes by their altered migration in electrophoresis.

Setting [4] is: wild-type Btk, read-out: Btk-WT IC50.
Setting [5] is: method is one of A, B or C, not stated which, read-out: IC50 values against Btk.

Read-outs that look alike come from different tables or passages of the source.

Usually IC50 stands for the point on the concentration scale where inhibition reaches its midpoint.

T3 sequence (Q06187 whole entry): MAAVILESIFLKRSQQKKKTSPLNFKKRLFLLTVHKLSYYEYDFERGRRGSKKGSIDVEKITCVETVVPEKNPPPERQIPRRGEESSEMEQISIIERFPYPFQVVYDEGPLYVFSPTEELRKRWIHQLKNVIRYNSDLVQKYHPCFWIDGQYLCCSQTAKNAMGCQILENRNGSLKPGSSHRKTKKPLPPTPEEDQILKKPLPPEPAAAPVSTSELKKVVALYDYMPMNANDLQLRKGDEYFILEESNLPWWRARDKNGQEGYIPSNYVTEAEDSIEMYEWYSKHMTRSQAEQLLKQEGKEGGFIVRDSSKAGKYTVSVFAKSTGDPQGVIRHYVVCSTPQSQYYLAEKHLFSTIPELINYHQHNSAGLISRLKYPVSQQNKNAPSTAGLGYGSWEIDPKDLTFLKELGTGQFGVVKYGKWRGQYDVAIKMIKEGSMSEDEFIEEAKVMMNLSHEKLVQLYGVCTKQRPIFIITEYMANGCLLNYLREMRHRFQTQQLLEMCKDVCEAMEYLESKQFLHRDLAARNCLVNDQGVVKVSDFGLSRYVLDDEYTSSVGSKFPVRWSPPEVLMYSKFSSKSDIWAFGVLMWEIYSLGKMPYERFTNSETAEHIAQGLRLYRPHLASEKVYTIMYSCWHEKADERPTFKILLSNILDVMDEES

In the case of `C[C@H]1CC[C@@H](Nc2n[nH]c3nccc(-c4ccc(CNC(=O)c5cc(C(C)(C)O)on5)c(F)c4)c23)CN1C(=O)N(C)C` [Example 418, (2S,5R)-5-({4-[3-fluoro-4-({[5-(2-hydroxypropan-2-yl)-1,2-oxazole-3-carbonyl]amino}methyl)phenyl]-1H-pyrazolo[3,4-b]pyridin-3-yl}amino)-N,N,2-trimethylpiperidine-1-carboxamide], the IC50 in experiment [1] is 3820 nM; in experiment [2] it was 3080 nM; in experiment [3] (setting [4]), 50.6 nM.
Take `C[C@H]1CC[C@@H](Nc2n[nH]c3nccc(-c4ccc(CN5CCn6c(cc7c6CCCC7)C5=O)c(F)c4)c23)CN1C(=O)N(C)C` [Example 240, (2S,5R)-5-[(4-{3-fluoro-4-[(1-oxo-3,4,6,7,8,9-hexahydropyrazino[1,2-a]indol-2(1H)-yl)methyl]phenyl}-1H-pyrazolo[3,4-b]pyridin-3-yl)amino]-N,N,2-trimethylpiperidine-1-carboxamide]: the IC50 in experiment [1] is 387 nM; in experiment [2], 5030 nM; in experiment [3] (setting [4]) it was 5.5 nM. In experiment [2], the TEC/Btk was 915.
With `CC#CC(=O)N1CC[C@@H](Nc2n[nH]c3nccc(-c4ccc(CNC(=O)c5ccc(C(F)(F)F)cc5)c(F)c4)c23)C1` [Example 110, N-{[4-(3-{[(3R)-1-(but-2-ynoyl)pyrrolidin-3-yl]amino}-1H-pyrazolo[3,4-b]pyridin-4-yl)-2-fluorophenyl]methyl}-4-(trifluoromethyl)benzamide], the IC50 in experiment [1] is 66 nM; in experiment [2], 167 nM; in experiment [3] (setting [5]), less than 10 nM; in experiment [3] (setting [4]), 1.89 nM. In addition, in experiment [2], the TEC/Btk was determined as 88.
For `C=CC(=O)N1CCC[C@@H](Nc2n[nH]c3nccc(-c4ccc(CNC(=O)c5cc(C(C)C)on5)c(F)c4)c23)[C@H]1C` [Example 173, N-{[2-fluoro-4-(3-{[(2R,3R)-2-methyl-1-(prop-2-enoyl)piperidin-3-yl]amino}-1H-pyrazolo[3,4-b]pyridin-4-yl)phenyl]methyl}-5-(propan-2-yl)-1,2-oxazole-3-carboxamide] the same measures were 6 nM, 9 nM, less than 10 nM, 0.104 nM and 83.
Take `C=CC(=O)N1CC=C(c2n[nH]c3nccc(-c4ccc(CNC(=O)c5noc(C(C)(C)C)n5)c(F)c4)c23)C1` [Example 281, 5-tert-butyl-N-[(2-fluoro-4-{3-[1-(prop-2-enoyl)-2,5-dihydro-1H-pyrrol-3-yl]-1H-pyrazolo[3,4-b]pyridin-4-yl}phenyl)methyl]-1,2,4-oxadiazole-3-carboxamide]: the IC50 in experiment [1] came out at 2.98 nM; in experiment [2], 4.92 nM; in experiment [3] (setting [4]) it was 0.0568 nM. In addition, the TEC/Btk in experiment [2] is listed as 87.
`O=C(NCc1ccc(-c2ccnc3[nH]nc(N[C@@H]4CCNC4)c23)cc1F)c1ccccc1` [Compound 31, (R)—N-(2-fluoro-4-(3-(pyrrolidin-3-ylamino)-1H-pyrazolo[3,4-b]pyridin-4-yl)benzyl)benzamide]: the IC50 is 1710 nM in experiment [1], 6410 nM in experiment [2] and more than 10000 nM in experiment [3] (setting [4]).
For `CC(C)c1cc(C(=O)NCc2ccc(-c3ccnc4[nH]nc(N[C@@H]5CCCN[C@@H]5C)c34)cc2F)no1` [Example 172, N-{[2-fluoro-4-(3-{[(2R,3R)-2-methylpiperidin-3-yl]amino}-1H-pyrazolo[3,4-b]pyridin-4-yl)phenyl]methyl}-5-(propan-2-yl)-1,2-oxazole-3-carboxamide], the IC50 is more than 10000 nM in experiment [1], more than 10000 nM in experiment [2] and 436 nM in experiment [3] (setting [4]). Moreover, the TEC/Btk in experiment [2] is more than 100.
For the compound `C=CC(=O)N1CC[C@@H](Nc2n[nH]c3nccc(-c4ccc(CNC(=O)c5ccc(C(F)(F)F)cc5)c(F)c4)c23)C1` [Compound 48, (R)—N-(4-(3-((1-acryloylpyrrolidin-3-yl)amino)-1H-pyrazolo[3,4-b]pyridin-4-yl)-2-fluorobenzyl)-4-(trifluoromethyl)benzamide], the IC50 was 46 nM in experiment [1], 65 nM in experiment [2] and 0.798 nM in experiment [3] (setting [4]). In addition, in experiment [2], the TEC/Btk was determined as 81.
For `C=CC(=O)N1CC[C@@H](Nc2n[nH]c3nccc(-c4ccc(NC(=O)c5ccc(C(C)(C)C)cc5)c(F)c4)c23)C1` [Compound 45] the same measures were 449 nM, 1920 nM, more than 10000 nM and more than 100.
For `CC(C)(C)c1noc(C(=O)NCc2ccc(-c3ccnc4[nH]nc(C5CC5)c34)cc2F)n1` [Example 255, 3-tert-butyl-N-{[4-(3-cyclopropyl-1H-pyrazolo[3,4-b]pyridin-4-yl)-2-fluorophenyl]methyl}-1,2,4-oxadiazole-5-carboxamide] the same measures were 1360 nM, 1630 nM, 1.26 nM and 1294.
With `C=CC(=O)N1CC[C@@H](Nc2n[nH]c3nccc(-c4cccc(NC(=O)c5ccc(C(C)(C)C)cc5)c4CO)c23)C1` [Example 161, 4-tert-butyl-N-[2-(hydroxymethyl)-3-(3-{[(3R)-1-(prop-2-enoyl)pyrrolidin-3-yl]amino}-1H-pyrazolo[3,4-b]pyridin-4-yl)phenyl]benzamide], the IC50 was 275 nM in experiment [1], 318 nM in experiment [2], less than 10 nM in experiment [3] (setting [5]) and 0.57 nM in experiment [3] (setting [4]). In addition, the TEC/Btk in experiment [2] turned out to be 558.
Turning to `C[C@H]1CC[C@@H](Nc2n[nH]c3nccc(-c4ccc(CNC(=O)c5cc(C(C)(C)C)on5)c(F)c4)c23)CN1` [Example 144, 5-tert-butyl-N-{[2-fluoro-4-(3-{[(3R,6S)-6-methylpiperidin-3-yl]amino}-1H-pyrazolo[3,4-b]pyridin-4-yl)phenyl]methyl}-1,2-oxazole-3-carboxamide], the values for the IC50 in experiment [1], in experiment [2] and in experiment [3] (setting [4]) were 912 nM, 1320 nM and 225 nM, respectively. The TEC/Btk in experiment [2] is given as 6.
For the compound `CC(C)(C)c1noc(C(=O)NCc2ccc(-c3ccnc4[nH]nc(N5CCC(N)C5)c34)cc2F)n1` (stereo not drawn) [Example 330, N-({4-[3-(3-aminopyrrolidin-1-yl)-1H-pyrazolo[3,4-b]pyridin-4-yl]-2-fluorophenyl}methyl)-3-tert-butyl-1,2,4-oxadiazole-5-carboxamide], the IC50 in experiment [1] worked out at 1230 nM; in experiment [2] it was 1320 nM; in experiment [3] (setting [4]) it was 0.626 nM.
For `C=CC(=O)N1CCC[C@@H](Nc2n[nH]c3nccc(-c4ccc(CNC(=O)c5cc(CC)on5)c(F)c4)c23)[C@H]1C` [Example 304, 5-ethyl-N-{[2-fluoro-4-(3-{[(2R,3R)-2-methyl-1-(prop-2-enoyl)piperidin-3-yl]amino}-1H-pyrazolo[3,4-b]pyridin-4-yl)phenyl]methyl}-1,2-oxazole-3-carboxamide] the same measures were 4.59 nM, 15.9 nM and 0.908 nM.
For the compound `C[C@H]1CC[C@@H](Nc2n[nH]c3nccc(-c4ccc(CNC(=O)c5noc(C(C)(C)C)n5)c(F)c4)c23)CN1C(=O)CC#N` [Example 140, 5-tert-butyl-N-{[4-(3-{[(3R,6S)-1-(2-cyanoacetyl)-6-methylpiperidin-3-yl]amino}-1H-pyrazolo[3,4-b]pyridin-4-yl)-2-fluorophenyl]methyl}-1,2,4-oxadiazole-3-carboxamide], the IC50 in experiment [1] is 1770 nM; in experiment [2], 855 nM; in experiment [3] (setting [5]), less than 10 nM; in experiment [3] (setting [4]) it was 2.65 nM. Besides, the TEC/Btk in experiment [2] came to 323.

The values are drawn from US20180194762A1 (Pharmacyclics LLC, priority 2017, published 2018).
